In PMC10973839, “CHF6297: a novel potent and selective p38 MAPK inhibitor with robust anti-inflammatory activity and suitable for inhaled pulmonary administration as dry powder” (Frontiers in Pharmacology, 2024):

Tests used:
human p38α (MAPK14) = biological target: T1, human p38α (MAPK14) (Homo sapiens, UniProt Q16539); test: AlphaScreen kinase activity assay, human p38α; format: biochemical
T1 construct: GST; purchased Invitrogen
Description: (§1) The inhibitory activity of CHF6297 was determined using an AlphaScreen® (PerkinElmer)-based kinase activity assay as previously described ([Armani et al., 2022]). Kinase reactions consisted of 25 mM 4-(2-hydroxyethyl)-1-piperazine ethanesulfonic acid (HEPES), pH 7.5; 10 mM MgCl2; 100 μM Na3VO4; 2 mM DTT; 0.05 mg/mL Tween^TM 20; 100 pM solution of p38α, p38β, p38δ, or p38γ (Invitrogen); 1% DMSO; and 0.3 μg/mL ATF-2 fusion protein (New England Biolabs). Compounds were incubated under these conditions for 2 h, at 25°C, prior to the initiation of kinase activity by the addition of 250 μM ATP. […] Detection was performed by measuring luminescence following the addition of AlphaScreen donor beads (PerkinElmer, 6765300) and Protein A AlphaScreen acceptor beads (PerkinElmer, 6760137), both at a final concentration of 20 μg/mL. IC50 values were determined from concentration–response curves. […]
(§2) CHF6297 was tested in biochemical enzymatic assays to determine its potency as an inhibitor of human p38α (MAPK14) and of the other human p38 isoforms, p38β (MAPK11), p38γ ([…]), and p38δ ([…]) ([Armani et al., 2022]). Activity in the primary screening assay was determined using AlphaScreen technology, in which a peptide (ATF2) is phosphorylated by the appropriate GST-tagged p38 protein isoform in the presence of CHF6297 at concentrations from semi-logarithmic dilutions. […]

human p38γ = biological target: T2, human p38γ (Homo sapiens, UniProt P53778); test: AlphaScreen kinase activity assay, human p38γ; format: biochemical
T2 construct: GST; purchased Invitrogen
T2 sequence (P53778 1-367): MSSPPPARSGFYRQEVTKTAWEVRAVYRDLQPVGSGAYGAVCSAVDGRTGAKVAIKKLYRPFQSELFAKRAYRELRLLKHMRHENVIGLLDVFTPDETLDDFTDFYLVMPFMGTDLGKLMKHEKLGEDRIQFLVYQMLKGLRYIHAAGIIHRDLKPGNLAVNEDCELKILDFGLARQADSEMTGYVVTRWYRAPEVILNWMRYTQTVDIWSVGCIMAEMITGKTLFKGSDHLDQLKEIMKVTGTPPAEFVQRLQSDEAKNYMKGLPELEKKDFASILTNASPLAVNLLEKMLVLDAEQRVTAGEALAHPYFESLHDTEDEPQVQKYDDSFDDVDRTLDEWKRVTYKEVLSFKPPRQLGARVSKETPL
Description: as §1, §2

human p38δ = biological target: T3, human p38δ (Homo sapiens, UniProt O15264); test: AlphaScreen kinase activity assay, human p38δ; format: biochemical
T3 construct: GST; purchased Invitrogen
T3 sequence (O15264 1-365): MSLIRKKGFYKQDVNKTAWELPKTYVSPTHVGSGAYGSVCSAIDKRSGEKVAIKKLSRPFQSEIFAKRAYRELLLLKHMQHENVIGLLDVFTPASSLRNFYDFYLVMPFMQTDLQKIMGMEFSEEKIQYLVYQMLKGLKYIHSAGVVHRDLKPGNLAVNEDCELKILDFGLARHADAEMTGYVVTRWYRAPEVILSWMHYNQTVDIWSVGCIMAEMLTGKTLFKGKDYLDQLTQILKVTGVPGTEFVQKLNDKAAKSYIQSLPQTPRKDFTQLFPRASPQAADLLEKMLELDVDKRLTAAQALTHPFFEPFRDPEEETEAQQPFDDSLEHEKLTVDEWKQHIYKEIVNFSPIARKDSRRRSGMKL
Description: as §1, §2

human p38α = biological target: T4, human p38α (Homo sapiens, UniProt Q16539); test: KINOMEscan competition binding assay (DiscoverX), p38α; conditions: read-out: Kd (mean ± s.d.)
T4 construct: purchased DiscoverX
Source text: The KINOMEscan® platform (DiscoverX) was used, which uses a novel and proprietary active site-directed competition binding assay to quantitatively measure the interactions between human p38 isoforms and the target compound.

[1] = system: TS-induced neutrophil influx in BALF; test: BALF neutrophilia induced by tobacco smoke exposure in mice; format: in vivo, C57BL6J female mice; conditions: for neutrophils in BALF: 4 days TS exposure
Description: C57BL6J female mice aged 9–10 weeks (Harlan Laboratories S.r.l) in groups of 8 were exposed, via whole-body inhalation, twice daily 1 h apart, for 4 consecutive days, to the tobacco smoke (TS) (generated using “Marlboro Gold: 9 mg of tar and 0.7 mg nicotine”) of two cigarettes/exposure on days 1 and 2, three cigarettes/exposure on day 3, and four cigarettes/exposure on the last exposure day in clear polycarbonate chambers (27 cm × 16 cm × 12 cm). The smoke was introduced into the exposure chambers (21100-790 Ugo Basile, Biological Research Instruments, Comerio, Varese, Italy), with the airflow generated by using a mechanical ventilator (7025 Rodent Ventilator, Ugo Basile). Each exposure chamber was connected to a different ventilator set at a rate of 100 mL/min (frequency: 50 strokes/min; volume: 2 mL/stroke). At regular intervals (after burning two cigarettes), the exposure chambers were opened and aired. Sham and control mice were exposed to air only in the same manner for the same duration of time.
CHF6297 (0.03 and 0.3 mg/kg) and budesonide (0.3 mg/kg), our reference compound and vehicle (0.2% Tween 80 in saline), respectively, were administered intranasally in a volume of 30 µL, 1 h before and 5 h after TS exposure under light isoflurane anesthesia.
A BAL was performed using a volume of 0.6 mL of phosphate-buffered saline that was gently instilled and withdrawn three times using a 12-mL syringe. BALF cells were separated by centrifugation (10 min at 3,070 g), and the supernatant was removed. The resulting cell pellet was resuspended in a known volume of PBS, and the total cell numbers were calculated by counting a stained (Turk’s stain) aliquot under a microscope using a hemacytometer. The cell pellet was resuspended to approximately 10^5 cells per ml, and cytospin slides were prepared by centrifugation (8 min at 72.26 g; Shandon Cytospin; Thermo Shandon Ltd., Runcorn, Cheshire, United Kingdom). The slides were air-dried and stained using Wright–Giemsa stain, following the manufacturer’s instructions. A differential cell count was performed using light microscopy. Approximately 400 cells were counted from each slide. The cells were identified using standard morphometric techniques.

[2] = system: IAV-induced airway neutrophilia in HDM-challenged mice; test: Influenza virus A (H3N2)-induced exacerbation in HDM-sensitized mice; format: in vivo, Balb/c mice
[3] = n = 3, read-out: IC50 (mean ± s.d.)

T1 sequence (Q16539 whole entry): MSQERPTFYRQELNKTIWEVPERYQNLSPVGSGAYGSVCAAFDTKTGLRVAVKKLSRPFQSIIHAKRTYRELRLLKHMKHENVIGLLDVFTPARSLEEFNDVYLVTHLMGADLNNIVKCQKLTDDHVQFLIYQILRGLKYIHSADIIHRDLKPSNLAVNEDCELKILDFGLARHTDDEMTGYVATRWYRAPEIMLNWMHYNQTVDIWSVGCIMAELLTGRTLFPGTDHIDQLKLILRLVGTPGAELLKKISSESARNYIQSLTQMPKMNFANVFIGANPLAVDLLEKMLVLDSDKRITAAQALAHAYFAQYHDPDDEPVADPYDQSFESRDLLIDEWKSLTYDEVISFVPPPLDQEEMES
T4 sequence (Q16539 whole entry): as above

C[C@H]1CCCCN1c1nnc2ccc(O[C@@H]3CC[C@H](NC(=O)Nc4cc(C(C)(C)C)nn4-c4cnn(CCN(C)C)c4)c4ccccc43)cn12 [CHF6297]
IC50 fold-difference vs. human p38α (human p38α (MAPK14)): 1 | IC50 (human p38α (MAPK14); [3]): 0.14 ± 0.06 nM | IC50 fold-difference vs. human p38α (human p38γ): 6,750 | IC50 (human p38γ; [3]): 945 ± 58 nM | IC50 fold-difference vs. human p38α (human p38δ): >7,000 | IC50 (human p38δ; [3]): > 1000 nM | Kd (human p38α): 0.24 ± 0.06 nM | % of inhibition of neutrophil recruitment ([1]; 0.03 mg/kg i.n., 1 h before and 5 h after TS): 29.7 ± 15.3% | neutrophils in BALF ([1]; 0.03 mg/kg i.n.): 0.4 ± 0.1 × 10^5 cells/mL | % inhibition of neutrophilia ([1]; 0.3 mg/kg i.n., 1 h before and 5 h after TS): 62.0 ± 8.4% | neutrophils in BALF ([1]; 0.3 mg/kg i.n.): 0.2 ± 0.1 × 10^5 cells/mL | neutrophils in BAL fluid ([2]; 30 μg/kg i.n. twice daily for 3 days): 2.78 ± 0.28 × 10^5 cells/mL | neutrophils in BAL fluid ([2]; 100 μg/kg twice daily for 3 days): 1.29 ± 0.119 × 10^5 cells/mL
